By IC50 is commonly meant the concentration at which inhibition is half-maximal. The low end stands for greater potency, the high end for weaker potency.

The target of the first assay is T1, human ferroportin (Fpn-HaloTag fusion protein) (Homo sapiens, UniProt Q9NP59).
T1 construct: expressed in transfected cells
T1 sequence (Q9NP59 1-571): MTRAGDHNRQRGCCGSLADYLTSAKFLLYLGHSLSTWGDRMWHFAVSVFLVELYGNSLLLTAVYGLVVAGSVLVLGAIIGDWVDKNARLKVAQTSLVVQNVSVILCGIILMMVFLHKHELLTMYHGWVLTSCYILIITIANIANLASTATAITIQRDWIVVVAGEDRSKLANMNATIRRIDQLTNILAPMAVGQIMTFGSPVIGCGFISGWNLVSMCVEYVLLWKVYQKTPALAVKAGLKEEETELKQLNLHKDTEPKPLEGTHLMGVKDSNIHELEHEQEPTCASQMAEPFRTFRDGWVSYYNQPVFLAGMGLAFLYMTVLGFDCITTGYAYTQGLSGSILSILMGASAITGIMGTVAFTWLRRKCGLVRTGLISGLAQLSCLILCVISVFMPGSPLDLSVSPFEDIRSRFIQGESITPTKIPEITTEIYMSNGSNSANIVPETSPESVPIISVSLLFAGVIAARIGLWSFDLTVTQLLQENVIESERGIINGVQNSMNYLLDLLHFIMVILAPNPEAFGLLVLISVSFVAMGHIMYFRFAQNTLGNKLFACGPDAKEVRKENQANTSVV
As to the kind of experiment: ferroportin internalization assay (inhibition of hepcidin-induced internalization of Fpn, MDCK-FPN-HaloTag cells). Format: cell-based. To be noted: 100 nM hepcidin, overnight, dilution series 0.04 to 40 μM. As for the experimental part: The hepcidin-antagonistic action of the quinoline compounds of the present invention was determined by means of the “ferroportin internalization assay” described in the following.
Organic compounds of low molecular weight which counteract the biological actions of hepcidin on its receptor, the iron exporter ferroportin (Fpn), were identified on the basis of their ability to inhibit hepcidin-induced internalization of Fpn in living cells. For this purpose, a stable cell line (Madin-Darby canine kidney, MDCK) was produced which constitutively expresses human ferroportin fused recombinantly at its C terminus with a fluorescent reporter protein (HaloTag®, Promega Corp.). The internalization of Fpn was monitored by labelling these cells with fluorescent ligands (HaloTag®-TMR, tetramethylrhodamine) which join covalently on to the HaloTag reporter gene fused with the Fpn. […] Optimized image analysis algorithms were used to ascertain the cell surface and to quantify the corresponding membrane fluorescence associated with the Fpn-HaloTag fusion protein. This assay allows a quantitative image-based analysis in order to quickly evaluate compounds which can block hepcidin-induced internalization of Fpn. This assay is a direct in vitro pendant of the in vivo action mechanism proposed for medicament candidates and is therefore suitable as an initial assay with a high throughput for identifying compounds which counteract the action of hepcidin on its receptor ferroportin.
• 7,500 cells per well (MDCK-FPN-HaloTag) were transinoculated in 50 μl DMEM medium (Dulbeccos modified Eagle medium with 10% foetal bovine serum (FBS), which contained 1% penicillin, 1% streptomycin and 450 μg/ml of G-418) in microtitre plates with 384 wells, (384 Cell carrier plates, Perkin Elmer, cat. no. 6007430), followed by incubation overnight at 37° C./5% CO2. • The volume of the medium was reduced to 10 μl, and 10 μl of 5 μM HaloTag-TMR ligands (Promega, cat. no. G 8251) were added in DMEM medium in order to stain the Fpn-HaloTag fusion protein. • 15 min incubation at 37° C./5% CO2 • The HaloTag-TMR ligand was removed and the cells were washed with fresh DMEM medium and the volume was reduced to 20 μl of DMEM medium. • 3 μl per well of a solution of the test compound (dissolved DMSO) were added ([…]). • 7 μl of […] hepcidin (Peptides International, cat. no. PLP-4392-s, 100 μM stock solution diluted in water in DMEM medium) were added per well up to a final hepcidin concentration of 100 nM. • The cells were incubated overnight at 37° C./5% CO2. • The cells were fixed by adding paraformaldehyde (PFA, Electron Microscopy Sciences, cat. no. 15710-S) directly to the cells up to a final concentration of 4%, followed by incubation at room temperature for 15-20 minutes. • The PFA solution was removed and the cells were washed with PBS (phosphate-buffered saline solution), in each case 30 μl remaining in the plate. • 20 μl of Draq5 (Biostatus, cat. no. DR 51000) were added up to a final concentration of 2.5 μM in order to stain the cell nuclei, and the plates were sealed with a foil plate seal. • The plates were analysed with the Opera Plate Imager (Opera Confocal Plate Imager, Perkin Elmer) with 7 images per well; 440 ms exposure time per image, […] focal point height.
As for `Oc1c(C(c2cccnc2)N2CCOCC2)ccc2cccnc12` (centres unmarked) [Example 29, 7-(Morpholin-4-yl-pyridin-3-yl-methyl)-quinolin-8-ol], the IC50 was less than 50 µM.

In turn, `Oc1c(C(c2ccccn2)N2CCC(c3ccccc3F)CC2)ccc2cccnc12` (centres unmarked) [Example 36, 7-{[4-(2-Fluoro-phenyl)-piperidin-1-yl]-pyridin-2-yl-methyl}-quinolin-8-ol] displayed a half-maximal inhibitory concentration (IC50) of less than 50 µM.

The compound `Cc1ccc(C(c2ccc3cccnc3c2O)N2CCOCC2)cc1` (centres unmarked) [Example 9, 7-(Morpholin-4-yl-p-tolyl-methyl)-quinolin-8-ol] returned a 50% inhibitory concentration (IC50) of less than 50 µM. The same measure, in the same setting: the value for `Oc1c(C(c2ccccn2)N2CCC(Cc3ccccc3)CC2)ccc2cccnc12` (centres unmarked) [Example 7, 7-[(4-Benzyl-piperidin-1-yl)-pyridin-2-yl-methyl]-quinolin-8-ol] was less than 50 µM. Same read-out and setting: the value for `Oc1c(C(c2ccc(Cl)cc2)N2CCOCC2)cc(Cl)c2cccnc12` (centres unmarked) [Example 2, 5-Chloro-7-[(4-chloro-phenyl)-morpholin-4-yl-methyl]-quinolin-8-ol] was less than 50 µM; that for `CC1CN(C(c2ccc(F)cc2)c2ccc3cccnc3c2O)CC(C)O1` (centres unmarked) [Example 20, 7-[(2,6-Dimethyl-morpholin-4-yl)-(4-fluoro-phenyl)-methyl]-quinolin-8-ol] was less than 50 µM. Still for that read-out and setting: the value for `Cc1ccccc1C(c1ccc2cccnc2c1O)N1CCOCC1` (centres unmarked) [Example 12, 7-(Morpholin-4-yl-o-tolyl-methyl)-quinolin-8-ol] was less than 50 µM.

Still in this assay, the particulars now being: 10 μM substance conc., hepcidin-induced Fpn internalization.
For `Oc1c(C(c2ccc(Cl)cc2)N2CCOCC2)cc(Cl)c2cccnc12` (centres unmarked) [Example 2, 5-Chloro-7-[(4-chloro-phenyl)-morpholin-4-yl-methyl]-quinolin-8-ol], the “I [%] (median inhibition [%] at 10 μM substance conc.)” value is less than 50%.

(Values after US20120196853A1, “Novel Quinoline-Hepcidine Antagonists” (VIFOR (INTERNATIONAL) AG, priority 2009, published 2012).)
